We go through two molecules from patent US6528245B2, “Bone marrow cells as a source of neurons for brain and spinal cord repair” (University of South Florida, priority 1998, dated 2003).

One experiment has as its system human BMSC. Nature of the experiment: In vitro differentiation of human BMSC; immunocytochemistry and Western blot. In kind it is cell-based. The conditions noted are these: replated in medium containing the mitogen. An excerpt:
To briefly summarize, BMSC were separated from whole bone marrow of the mouse, calf and humans.
BMSC were isolated from residual bone marrow material (bone chips with adherent stromal cells, fatty tissue and debris) which was retained on the nylon mesh filters routinely used in filtering freshly procured human marrow to be used for bone marrow transplantation. The filtrate contains the bulk of the bone marrow hematopoietic elements that is then processed for human bone marrow replacement. We use the filters that were usually discarded. The filters were back washed five times with PBS. The PBS solution was centrifuged to deposit the heavier bone chips. The supernatant was resuspended in culture medium and plated in tissue culture flasks (as in Example 1). BMSC were separated by their adherence to plastic culture flasks, whereas the smaller hematopoietic stem cells remained suspended in the media and were removed when the culture media was replaced with fresh media. […]
After 7 days, expressions of neuronal markers (Nestin, Neuron Specific Nuclear protein or NeuN and GFAP) and a bone marrow stromal cell marker (fibronectin) were analyzed by Western blot analysis and immunocytochemistry (FIG. 6). […]

For another experiment, the system named is MSCs. As to conditions: 1 μg/ml, alone; cited from earlier work.

“EGF: epidermal growth factor, mitogen used at 10 ng/ml (NSDSECPLSHDGYCLHDGVCMYIEALDKYACNCVVGYIGERCQYRDLKWWELR; Epidermal growth factor; UniProt P01133 971-1023, looked up)”: the “proliferation and differentiation of human bone marrow cells” value in the experiment on human BMSC is “proliferation of cells, without significant induction of differentiation”.

For `C[C@@H]1[C@H](O)[C@@H](C)/C=C/C=C/C=C/C=C/C=C/C=C/C=C/[C@H](O[C@@H]2O[C@H](C)[C@@H](O)[C@H](N)[C@@H]2O)C[C@@H]2O[C@](O)(C[C@@H](O)C[C@@H](O)[C@H](O)CC[C@@H](O)C[C@@H](O)CC(=O)O[C@H]1C)C[C@H](O)[C@H]2C(=O)O` [amphotericin B], the “differentiation of MSCs into myoblasts and myotubes” value in the experiment with MSCs is “differentiate into myoblasts and myotubes”.
